The values that follow are results of earlier work, collected in patent US20130226549A1, “STRUCTURE-BASED FRAGMENT HOPPING FOR LEAD OPTIMIZATION AND IMPROVEMENT IN SYNTHETIC ACCESSIBILITY” (priority 2012, published 2013).

The target in the data set is T1, human 5-LOX (Homo sapiens, UniProt P09917).
T1 sequence (P09917 1-674): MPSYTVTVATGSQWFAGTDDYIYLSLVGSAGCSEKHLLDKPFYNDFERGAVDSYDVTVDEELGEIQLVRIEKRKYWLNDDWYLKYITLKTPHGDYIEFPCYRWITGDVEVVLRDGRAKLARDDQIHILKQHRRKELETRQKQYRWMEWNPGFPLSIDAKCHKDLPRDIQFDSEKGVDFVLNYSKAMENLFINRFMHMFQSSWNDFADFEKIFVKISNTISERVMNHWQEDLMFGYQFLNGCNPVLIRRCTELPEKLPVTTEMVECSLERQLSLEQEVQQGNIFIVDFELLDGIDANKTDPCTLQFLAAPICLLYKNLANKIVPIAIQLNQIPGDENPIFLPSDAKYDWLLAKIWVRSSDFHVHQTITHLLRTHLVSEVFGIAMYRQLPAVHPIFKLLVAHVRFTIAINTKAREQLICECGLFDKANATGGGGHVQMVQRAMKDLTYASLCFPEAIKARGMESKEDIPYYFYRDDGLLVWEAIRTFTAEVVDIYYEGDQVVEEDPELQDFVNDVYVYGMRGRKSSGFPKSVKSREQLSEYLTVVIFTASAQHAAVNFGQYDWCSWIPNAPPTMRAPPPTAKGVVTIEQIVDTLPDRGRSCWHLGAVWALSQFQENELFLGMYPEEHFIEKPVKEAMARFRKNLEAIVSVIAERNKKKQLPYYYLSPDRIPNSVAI
The conditions noted are these: from the literature.

Where [1] appears, read: 5-LOX, LeadOp+R example, read-out: Inhibition IC50.

Molecules are shown by their SMILES. Read-outs that look alike come from different tables or passages of the source.

On to `O=c1cc(-c2ccc(F)cc2)c2ccc(CCc3ncc(C(O)(C(F)(F)F)C(F)(F)F)s3)cc2o1` [compound H], for which the IC50 (human 5-LOX, LeadOp example, read-out: IC50) is 64 nM. On to `CCC(O)(c1cnc(Sc2ccc3c(-c4ccc(F)cc4)cc(=O)oc3c2)s1)C(F)(F)F` (stereo not shown) [rB1], for which the concentration for half-maximal inhibition (IC50) under setting [1] was 7 ± 2 nM. Turning to `O=c1cc(-c2ccc(F)cc2)c2ccc(CCc3ncc(C(O)(C(F)(F)F)C(F)(F)F)s3)cc2o1` [rB3], the IC50 under setting [1] is 64 ± 3 nM.

As to `CN(Cc1ccc2c(-c3ccc(F)cc3)cc(=O)oc2c1)c1ncc(C(O)(C(F)(F)F)C(F)(F)F)s1` [rB, reference compound], the IC50 under setting [1] was 145 nM.
